By IC50 is commonly meant the concentration at which inhibition is half-maximal. The term kon denotes the second-order rate constant of association.

The values that follow come from US20070026433A1, “Epitope testing using soluble HLA” (priority 2001, published 2007).

Series [1] has as its target HLA-A*0201 (Homo sapiens, UniProt P04439, D140Y/D185E/D98H/E176V/E277Q/G131W/G231S/I119V/I121R/I166T/I218V/L300P/L318F/N151K/N90K/P208A/P217A/Q86G/Q94H/R138H/R169H/T345S). Particulars: cited from earlier work; for IC50: read-out: cell-free systems (^125I) IC50, published values, 125I peptide tracer.
Series [2] deals with T1, sHLA-A*0201 (Homo sapiens, UniProt P04439, D140Y/D185E/D98H/E176V/E277Q/G131W/G231S/I119V/I121R/I166T/I218V/L300P/L318F/N151K/N90K/P208A/P217A/Q86G/Q94H/R138H/R169H/T345S). Description: biochemical. Particulars: for kon: read-out: association rate constants kon.
The target in series [3] is T1, sHLA-A*0201. The series can be described thus: biochemical. It is filed as binding. Set-up: contained the leader peptide, as well as the α1, α2, and α3 coding domains of the HLA heavy chain; made in house; β2m from Fitzgerald Industries International.
The target in series [4] is T2, A*1102 (Homo sapiens, UniProt P04439, A114D/D185E/E176A/E43K/F33Y/L180Q/S129P/T187R).
T2 construct: contained the leader peptide, as well as the α1, α2, and α3 coding domains of the HLA heavy chain; made in house
The series can be described thus: Multiple-specificity screening of FITC-labeled peptides (supertyping, FP). It is filed as binding. As to conditions: 2 nM peptide, 100 μg/ml activated sHLA. The text has this: (§1) Multiple-specificity screening of FITC-labeled peptides: To approach the problem of supertype analysis, a novel, state-of-the-art screening assay was developed that utilizes high quality soluble HLA and the technique of fluorescence polarization (FP). This assay combination allows the direct measurement of the ratio between free and bound labeled ligand in solution without any separation steps. The technique of FP is based on the principal that if a fluorescent-labeled peptide binds to the sHLA molecule of higher molecular weight, polarization values will increase due to the slower molecular rotation of the bound probe.
(§2) To elaborate peptide cross-reactivity among MHC class I molecules, a panel of 53 single-specificity sHLA receptors was screened for their binding capacity towards a series of fluorescent-labeled peptide ligands. During the process, each peptide candidate (2 nM) was incubated with 100 μg/ml of activated sHLA and peptide/MHC interaction was monitored over time on the Analyst™ AD Assay Detection System (Molecular Devices; Sunnyvale, Calif.). For optimal signal output, b2-microglobulin was added in 2× molar excess of the used sHLA concentration. For all preparations, 1× BGG/PBS was used as buffer. The use of appropriate controls allowed accurate estimation of specific polarization. […]

In series [5] the test system is alleles listed for the B27 supertype. The series is described as above. It is filed as binding, human. Particulars: 2 nM peptide, 100 μg/ml activated sHLA.
Text: as §1, §2

The target in series [6] is T1, sHLA-A*0201. The series can be described thus: Epitope screening at a threshold concentration of 80 μM (FP competition). As to conditions: 80 μM peptide, 50 μg/mL sHLA-A*0201, 1 nM P5, β2m 2117 nM.
For series [7], the target named is T1, sHLA-A*0201. Format: binding. Set-up: contained the leader peptide, as well as the α1, α2, and α3 coding domains of the HLA heavy chain; made in house; β2m from Fitzgerald Industries International. Particulars: 10 nM pFITC, sHLA-A*0201 titration.
Series [8] concerns the target T1, sHLA-A*0201. The series can be described thus: Multiple specificity screening by FP. More on the design: contained the leader peptide, as well as the α1, α2, and α3 coding domains of the HLA heavy chain; made in house; β2m from Fitzgerald Industries International. As to conditions: 10 nM peptide, 100 μg/mL activated sHLA. It is filed as binding. As for the experimental part:
Multiple Specificity Screening. To determine the specificity for sHLA-A*0201 as well as potential cross-reactivity to other sHLA alleles, 48 different sHLA alleles were screened for binding with the A*0201 pFITC constructs (FIG. 15). For screening purposes, each peptide candidate (10 nM) was incubated with 100 μg/mL activated sHLA, and the peptide/HLA interaction was monitored over time. As expected, no significant binding was detected to any of the B-alleles tested (FIG. 15B), whereas a high binding affinity was observed between sHLA-A*0201 and the pFITC candidates. An exception was pFITC P3 (FIG. 15A). […] The significant decrease in association kinetics recorded after 0.8 h seems to imply that the HLA class I molecule is not stabilized following exposure to this peptide, irrespective of whether it attempted to bind. […] Thus, modification of the residue at the P4 nonanchor position of pFITC P3 may not affect the specificity and association kinetics of peptide binding but rather seems to affect the stability of the class I peptide interaction.

For series [9] the following is noted: cited from earlier work.
The mark [10] stands for this setting: read-out: dissociation rate constants.
The mark [11] stands for this setting: read-out: dissociation rate constants koff.
Where [12] appears, read: 50 μg/mL (1059 nM) sHLA-A*0201, β2m 2117 nM, 1 nM FITC-labeled reference peptide P5, read-out: StD comp assay (FP) IC50.

Where two headings read alike, the source gives them in different places. Ends that are not written are not given here. Peptide text beside a SMILES is read from it. * marks the point of attachment. FITC = O=C1OC2(c3ccc(O)cc3Oc3cc(O)ccc32)c2ccc(NC(=S)*)cc21; 125I = [125I]*

Consider `CC[C@H](C)[C@H](NC(=O)[C@H](Cc1c[nH]c2ccccc12)NC(=O)[C@@H](NC(=O)CNC(=O)[C@H](Cc1ccccc1)NC(=O)[C@H](CO)NC(=O)[C@@H](NC(=O)[C@H](CC(C)C)NC(=O)[C@@H](N)Cc1ccc(O)cc1)C(C)C)C(C)C)C(=O)O`, for which, in [1], the 50% inhibitory concentration (IC50) is 1.9 nM. Turning to `CC(C)C[C@H](N)C(=O)N[C@H](C(=O)N[C@@H](Cc1ccccc1)C(=O)NCC(=O)N[C@@H](CCCCNC(=S)Nc1ccc2c(c1)C(=O)OC21c2ccc(O)cc2Oc2cc(O)ccc21)C(=O)N[C@@H](CCC(=O)O)C(=O)N[C@H](C(=O)N[C@H](C(=O)N[C@@H](CCC(=O)O)C(=O)N[C@H](C(=O)O)C(C)C)C(C)C)C(C)C)C(C)C` [P4, L V F G K E V V E V] (H-LVFGK(FITC)EVVEV-OH), the on-rate (kon) in [2] came to 9900 M⁻¹ s⁻¹. Moreover, the koff is 0.00019 to 0.00043 s⁻¹ in series [2] (setting [10]) and 0.000284 s⁻¹ in series [2] (setting [11]). As to `CSCC[C@H](NC(=O)[C@H](CC(C)C)NC(=O)[C@H](C)N)C(=O)N[C@@H](CC(=O)O)C(=O)N[C@@H](CCCCN)C(=O)N[C@H](C(=O)N[C@@H](CC(C)C)C(=O)N[C@@H](CCCCNC(=S)Nc1ccc2c(c1)C(=O)OC21c2ccc(O)cc2Oc2cc(O)ccc21)C(=O)N[C@H](C(=O)O)C(C)C)C(C)C` [P5], in series [2], the kon turned out to be 86800 M⁻¹ s⁻¹. The figures for the koff in [2] (setting [10]) and in [2] (setting [11]) were 0.00019 to 0.00043 s⁻¹ and 0.000188 s⁻¹, respectively. With DLVHFASPL, the IC50 in series [1] was 16700 nM; in series [3] (setting [12]), 366000 nM. As for “FLPSDY(^125I)FPSV (FLPSDY(125I)FPSV; listed as Homo sapiens) [iodinated molecule of earlier publications (Sette et al., 1994a)]”, the Kd in series [1] (Sette et al., 1994a, read-out: affinity of the iodinated molecule in earlier publications) is 15.5 nM. As to GRAFVTIKK, the binding capacity result in series [4] was “high A*1102 binding capacity”. Further, the binding entry in series [5] is recorded as “did not bind”. Regarding KLGEFYNQMM, the concentration for half-maximal inhibition (IC50) was 2820 nM in series [3] (setting [12]), 2480 to 10500 nM in [3] (IC50 with different pFITC reference peptides) and 2480 to 10500 nM in series [3] (IC50 within the different tracer systems). LVMAPRTVL (listed as Homo sapiens): the “inhibition at 80 μM” value in series [6] is reported as “minor”. Regarding “N L S K L S L D V (NLSKLSLDV; also: FITC label, position not given here; listed as Homo sapiens) [P3]”, the “saturation curve / stable complex formation with sHLA-A*0201” value in series [7] is recorded as “not able to form stable complexes with sHLA-A*0201”. In addition, the binding entry in series [8] was “failed to attain a higher polarization level compared to the other candidates”.

For YLLPAIVHI, the IC50 is 18 nM in [1] and 510 nM in [3] (setting [12]). For the molecule fluorescein isothiocyanate [FITC], in series [9], the pKa result was “approximately 6.5”.
